Experimental data published in PubChem BioAssay AID2060615 (Molecular Pharmacology Branch, DTP, NCI, 2025).

Tested on: 496974-208-R-J2-PDC complex spheroids, growth % test/control
Assay: Anticancer human tumor 496974-208-R-J2-PDC patient-derived pancreatic carcinoma cell line growth inhibition [CLK]
Settings: for IC50: curve of first compound; for viability, T/C: stronger effect = lower value; active = viability on the fitted dose curve at most 10% of control; inactive = the rest
Summary of the method: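 Patient-derived tumor cells grown as complex spheroids with HUVEC endothelial cells and mesenchymal stem cells, treated with drug combinations. Concentrations descend in half-log steps from near clinical Cmax, or from 10 microM if Cmax unknown.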

[1] = second compound 0.0316 µM, first compound 0.0316 µM
[2] = second compound 0.0316 µM, first compound 0.1 µM
[3] = second compound 0.1 µM, first compound 0.0316 µM
[4] = second compound 0.1 µM, first compound 0.1 µM
[5] = second compound 0.316 µM, first compound 0.0316 µM
[6] = second compound 0.316 µM, first compound 0.1 µM
[7] = second compound 1 µM, first compound 0.0316 µM
[8] = second compound 1 µM, first compound 0.1 µM
[9] = second compound 3.16 µM, first compound 0.0316 µM
[10] = second compound 3.16 µM, first compound 0.1 µM
[11] = second compound 10 µM, first compound 0.0316 µM
[12] = second compound 10 µM, first compound 0.1 µM
[13] = second compound 0.0316 µM, first compound 0.316 µM
[14] = second compound 0.0316 µM, first compound 1 µM
[15] = second compound 0.0316 µM, first compound 3.16 µM
[16] = second compound 0.0316 µM, first compound 10 µM
[17] = second compound 0.1 µM, first compound 0.316 µM
[18] = second compound 0.1 µM, first compound 1 µM
[19] = second compound 0.1 µM, first compound 3.16 µM
[20] = second compound 0.1 µM, first compound 10 µM
[21] = second compound 0.316 µM, first compound 0.316 µM
[22] = second compound 0.316 µM, first compound 1 µM
[23] = second compound 0.316 µM, first compound 3.16 µM
[24] = second compound 0.316 µM, first compound 10 µM
[25] = second compound 1 µM, first compound 0.316 µM
[26] = second compound 1 µM, first compound 1 µM
[27] = second compound 1 µM, first compound 3.16 µM
[28] = second compound 1 µM, first compound 10 µM
[29] = second compound 3.16 µM, first compound 0.316 µM
[30] = second compound 3.16 µM, first compound 1 µM
[31] = second compound 3.16 µM, first compound 3.16 µM
[32] = second compound 3.16 µM, first compound 10 µM
[33] = second compound 10 µM, first compound 0.316 µM
[34] = second compound 10 µM, first compound 1 µM
[35] = second compound 10 µM, first compound 3.16 µM
[36] = second compound 10 µM, first compound 10 µM
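Note: spheroids exposed to the drugs for 7 days before readout.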
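Throughout, for viability, T/C: 100% = DMSO vehicle control wells.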

Cn1ncnc1[C@H]1c2n[nH]c(=O)c3cc(F)cc(c23)N[C@@H]1c1ccc(F)cc1 + CN1CCN(c2cc(C(=O)Nc3cc4cc(-c5cnn(C)c5)ccc4cn3)ccn2)CC1
inactive: viability, T/C (second compound 0.0316 µM, first compound 0.000316 µM) 112% | viability, T/C (second compound 0.0316 µM, first compound 0.001 µM) 106% | viability, T/C (second compound 0.0316 µM, first compound 0.00316 µM) 99.2% | viability, T/C (second compound 0.0316 µM, first compound 0.01 µM) 94.9% | viability, T/C [1] 107% | viability, T/C [2] 96.5% | viability, T/C (second compound 0.1 µM, first compound 0.000316 µM) 84.8% | viability, T/C (second compound 0.1 µM, first compound 0.001 µM) 88.5% | viability, T/C (second compound 0.1 µM, first compound 0.00316 µM) 85.1% | viability, T/C (second compound 0.1 µM, first compound 0.01 µM) 79.6% | viability, T/C [3] 84.1% | viability, T/C [4] 63.7%
active: viability, T/C (second compound 0.316 µM, first compound 0.000316 µM) 5.57% | viability, T/C (second compound 0.316 µM, first compound 0.001 µM) 7.18% | viability, T/C (second compound 0.316 µM, first compound 0.00316 µM) 5.28% | viability, T/C (second compound 0.316 µM, first compound 0.01 µM) 6.84% | viability, T/C [5] 6.51% | viability, T/C [6] 9.2% | viability, T/C (second compound 1 µM, first compound 0.000316 µM) 0.52% | viability, T/C (second compound 1 µM, first compound 0.001 µM) 0.5% | viability, T/C (second compound 1 µM, first compound 0.00316 µM) 0.55% | viability, T/C (second compound 1 µM, first compound 0.01 µM) 0.33% | viability, T/C [7] 0.32% | viability, T/C [8] 2.32% | viability, T/C (second compound 3.16 µM, first compound 0.000316 µM) 0.36% | viability, T/C (second compound 3.16 µM, first compound 0.001 µM) 0.46% | viability, T/C (second compound 3.16 µM, first compound 0.00316 µM) 1.75% | viability, T/C (second compound 3.16 µM, first compound 0.01 µM) 0.59% | viability, T/C [9] 0.66% | viability, T/C [10] 0.41% | viability, T/C (second compound 10 µM, first compound 0.000316 µM) 0.27% | viability, T/C (second compound 10 µM, first compound 0.001 µM) 1.75% | viability, T/C (second compound 10 µM, first compound 0.00316 µM) 0.83% | viability, T/C (second compound 10 µM, first compound 0.01 µM) 0.22% | viability, T/C [11] 2.44% | viability, T/C [12] 2.04%
> 100 nM: IC50 (second compound 0.0316 µM) | IC50 (second compound 0.1 µM)
< 0.316 nM: IC50 (second compound 0.316 µM) | IC50 (second compound 1 µM) | IC50 (second compound 3.16 µM) | IC50 (second compound 10 µM)

Nc1ccn(C2OC(CO)C(O)C2(F)F)c(=O)n1 (stereo unspecified) + CN1CCN(c2cc(C(=O)Nc3cc4cc(-c5cnn(C)c5)ccc4cn3)ccn2)CC1
active: viability, T/C [5] 5.11% | viability, T/C [6] 5.63% | viability, T/C [21] 6.71% | viability, T/C [22] 5.91% | viability, T/C [23] 5.91% | viability, T/C [24] 4.9% | viability, T/C [7] 0.42% | viability, T/C [8] 0.5% | viability, T/C [25] 1.35% | viability, T/C [26] 0.4% | viability, T/C [27] 2.61% | viability, T/C [28] 0.41% | viability, T/C [9] 0.53% | viability, T/C [10] 0.7% | viability, T/C [29] 0.57% | viability, T/C [30] 0.47% | viability, T/C [31] 0.44% | viability, T/C [32] 1.78% | viability, T/C [11] 0.28% | viability, T/C [12] 1.23% | viability, T/C [33] 1.72% | viability, T/C [34] 0.25% | viability, T/C [35] 2.65% | viability, T/C [36] 0.29%
959 nM: IC50 (second compound 0.0316 µM)
259 nM: IC50 (second compound 0.1 µM)
< 31.6 nM: IC50 (second compound 0.316 µM) | IC50 (second compound 1 µM) | IC50 (second compound 3.16 µM) | IC50 (second compound 10 µM)
inactive: viability, T/C [1] 90.8% | viability, T/C [2] 76.9% | viability, T/C [13] 62.3% | viability, T/C [14] 44% | viability, T/C [15] 48.2% | viability, T/C [16] 50% | viability, T/C [3] 76.3% | viability, T/C [4] 57.8% | viability, T/C [17] 50.3% | viability, T/C [18] 40.6% | viability, T/C [19] 38.6% | viability, T/C [20] 38.5%

O=c1[nH]cc(F)c(=O)[nH]1 + CN1CCN(c2cc(C(=O)Nc3cc4cc(-c5cnn(C)c5)ccc4cn3)ccn2)CC1
5870 nM: IC50 (second compound 0.0316 µM)
inactive: viability, T/C [1] 108% | viability, T/C [2] 99.2% | viability, T/C [13] 99.3% | viability, T/C [14] 76.8% | viability, T/C [15] 60.1% | viability, T/C [16] 42% | viability, T/C [3] 83.5% | viability, T/C [4] 83.7% | viability, T/C [17] 76.3% | viability, T/C [18] 68.1% | viability, T/C [19] 54.2% | viability, T/C [20] 37.4%
4190 nM: IC50 (second compound 0.1 µM)
active: viability, T/C [5] 7.23% | viability, T/C [6] 6.68% | viability, T/C [21] 5.78% | viability, T/C [22] 6.41% | viability, T/C [23] 6.09% | viability, T/C [24] 6.36% | viability, T/C [7] 0.41% | viability, T/C [8] 0.51% | viability, T/C [25] 0.5% | viability, T/C [26] 0.43% | viability, T/C [27] 0.32% | viability, T/C [28] 0.55% | viability, T/C [9] 0.44% | viability, T/C [10] 0.46% | viability, T/C [29] 0.41% | viability, T/C [30] 0.57% | viability, T/C [31] 0.41% | viability, T/C [32] 2.84% | viability, T/C [11] 0.24% | viability, T/C [12] 0.41% | viability, T/C [33] 0.35% | viability, T/C [34] 0.27% | viability, T/C [35] 1.4% | viability, T/C [36] 1.8%
< 31.6 nM: IC50 (second compound 0.316 µM) | IC50 (second compound 1 µM) | IC50 (second compound 3.16 µM) | IC50 (second compound 10 µM)
